Laboratory results taken from article PMC3897212 (Journal of pharmacokinetics and pharmacodynamics, 2013).
Read-outs that look alike come from different tables or passages of the source. Marks after values point to notes of the source that are not given here.

Columns and labels:
[1] = mice; owing to ABCB1- and ABCB2-mediated efflux; cited from earlier work
[2] = tested on: metastatic breast cancer cells in the brains of mice; conditions: cited from earlier work
[3] = tested on: albumin and alpha-1 acid glycoprotein; conditions: cited from earlier work
[4] = Single 100 mg dose plasma pharmacokinetic study in healthy subjects; assay type: in vivo; conditions: human, po
[5] = Human PBPK model of lapatinib
[6] = Mouse PBPK model of lapatinib
[7] = tested on: brain metastases from HER2-positive breast cancer; conditions: human patients with brain metastases from HER2-positive breast cancer; cited from earlier work
[8] = patients administered lapatinib; cited from earlier work
[9] = human plasma, cited from earlier work
[10] = Time course tissue distribution / pharmacokinetic study in mice; assay type: in vivo, female FVB mice; conditions: mouse; for AUC(0-t) / half-life: female, FVB, po
CYP3A = conditions: cited from earlier work
[11] = first-order, parameter estimate (CV%) fitted to 60 mg/kg cohort
[12] = parameter estimate (CV%) fitted to 60 mg/kg cohort
[13] = slowly perfused tissue, 30 mg/kg
[14] = slowly perfused tissue, 60 mg/kg
[15] = slowly perfused tissue, 90 mg/kg

## CS(=O)(=O)CCNCc1ccc(-c2ccc3ncnc(Nc4ccc(OCc5cccc(F)c5)c(Cl)c4)c3c2)o1 [lapatinib, N-{3-chloro-4-[(3-fluorobenzyl)oxy]phenyl}-6-[5-({[2-(methylsulfonyl)ethyl]amino}methyl)-2-furyl]-4-quinazolinamine]
[1]
  central nervous system (CNS) penetration: poor central nervous system (CNS) penetration
[2]
  burden of metastatic breast cancer cells in the brain: reduce the burden of metastatic breast cancer cells in the brains of mice
[3]
  bound to albumin and alpha-1 acid glycoprotein: > 99%
[3]; plasma, value set in PBPK model
  Percent unbound: 1%
[3]; value set in PBPK model
  unbound fraction of drug in the plasma: 0.01
[4]
  AUC(0-t): 2.7 µM·h
  half-life: 570 min
[5]; human PBPK model parameter
  Partition coefficient Brain:plasma: 10 Ratio
  Partition coefficient Intestine:plasma: 531 Ratio
  Partition coefficient Kidney:plasma: 1,064 Ratio
  Partition coefficient Liver:plasma: 12 Ratio
  Partition coefficient Lung:plasma: 1,643 Ratio
  Partition coefficient Slowly perfused:plasma: 65 Ratio
[5]; human, calculated as 1.3 % of liver metabolism
  Metabolism rate constant Intestine: 0.975 ^f h^−1
[6]; calculated as 2 % of liver metabolism
  Metabolism rate constant Intestine: 2.5 ^e h^−1
[6]; [11]
  Absorption rate constant Lumen → Intestine: 0.237 (2) h^−1
  Metabolism rate constant Liver: 127 (13) h^−1
[6]; [12]
  Partition coefficient Brain:plasma: 10 (19) Ratio
  Partition coefficient Intestine:plasma: 531 (31) Ratio
  Partition coefficient Kidney:plasma: 1,064 (18) Ratio
  Partition coefficient Liver:plasma: 12 (20) Ratio
  Partition coefficient Lung:plasma: 1,643 (19) Ratio
  Partition coefficient Slowly perfused:plasma: 65 (20) Ratio
[7]
  CNS antitumor activity: modest CNS antitumor activity
[8]
  adverse reactions observed in clinical trials: decreased left ventricular ejection fraction, QT prolongation, hepatotoxicity, diarrhea and interstitial lung disease/pneumonitis
[9]; 25 mg multiple dose, healthy, fasted, median (range)
  Observed Tmax: 2.7 (2.5–4.0) ^e h
[9]; 100 mg multiple dose, healthy, fasted, median (range)
  Observed Tmax: 3.0 (2.0–6.0) ^e h
[9]; 175 mg single dose, healthy, fasted, median (range)
  Observed Tmax: 3.0 (2.0–4.0) ^f h
[9]; 1,200 mg multiple dose, cancer, fasted, median (95 % CI)
  Observed Tmax: 3.6 (3.0–7.9) ^f h
[9]; 1,200 mg single dose, cancer, fasted, median (95 % CI)
  Observed Tmax: 3.5 (2.1–6.0) ^g h
[9]; 1,250 mg multiple dose, cancer, fasted, median (range)
  Observed Tmax: 3.0 (1.5–8.0) ^f h
[9]; 1,250 mg multiple dose, cancer, not fasted, median (range)
  Observed Tmax: 3.0 (2.6–8.0) ^f h
[9]; 1,500 mg multiple dose, cancer, fasted, median (range)
  Observed Tmax: 3.0 (0.0–12.2) ^f h
[9]; 1,500 mg multiple dose, cancer, not fasted, median (range)
  Observed Tmax: 3.4 (0.0–6.0) ^f h
[9]; 1,600 mg multiple dose, cancer, fasted, median (95 % CI)
  Observed Tmax: 5.1 (0.9–8.0) ^g h
[9]; 1,800 mg multiple dose, cancer, fasted, median (95 % CI)
  Observed Tmax: 3.9 (3.0–7.9) ^g h
[9]; 1,800 mg single dose, cancer, fasted, median (95 % CI)
  Observed Tmax: 3.9 (3.0–8.0) ^g h
[10]; brain, 30 mg/kg
  AUC(0-t): 0.441 µM·h
[10]; brain, 60 mg/kg
  AUC(0-t): 1.31 µM·h
  half-life: 187 min
[10]; brain, 90 mg/kg
  AUC(0-t): 2.26 µM·h
  half-life: 106 min
[10]; heart, 30 mg/kg
  AUC(0-t): 7.16 µM·h
  half-life: 155 min
[10]; heart, 60 mg/kg
  AUC(0-t): 26.5 µM·h
  half-life: 183 min
[10]; heart, 90 mg/kg
  AUC(0-t): 55.2 µM·h
  half-life: 139 min
[10]; intestine, 30 mg/kg
  AUC(0-t): 79.9 µM·h
  half-life: 167 min
[10]; intestine, 60 mg/kg
  AUC(0-t): 235 µM·h
  half-life: 183 min
[10]; intestine, 90 mg/kg
  AUC(0-t): 260 µM·h
  half-life: 153 min
[10]; kidney, 30 mg/kg
  AUC(0-t): 50.4 µM·h
  half-life: 152 min
[10]; kidney, 60 mg/kg
  AUC(0-t): 138 µM·h
  half-life: 214 min
[10]; kidney, 90 mg/kg
  AUC(0-t): 227 µM·h
  half-life: 151 min
[10]; liver, 30 mg/kg
  AUC(0-t): 84.9 µM·h
  half-life: 149 min
[10]; liver, 60 mg/kg
  half-life: 165 min
[10]; liver, 90 mg/kg
  AUC(0-t): 261 µM·h
  half-life: 115 min
[10]; lung, 30 mg/kg
  AUC(0-t): 92.4 µM·h
  half-life: 143 min
[10]; lung, 60 mg/kg
  half-life: 182 min
[10]; lung, 90 mg/kg
  AUC(0-t): 623 µM·h
  half-life: 103 min
[10]; plasma, 30 mg/kg
  AUC(0-t): 12 µM·h
  half-life: 164 min
[10]; plasma, 60 mg/kg
  AUC(0-t): 24.1 µM·h
  half-life: 205 min
[10]; plasma, 90 mg/kg
  AUC(0-t): 48.2 µM·h
  half-life: 142 min
[10]; [13]
  AUC(0-t): 2.74 µM·h
  half-life: 233 min
[10]; [14]
  AUC(0-t): 9.52 µM·h
  half-life: 154 min
[10]; [15]
  AUC(0-t): 18.9 µM·h
  half-life: 93 min
[10]; all tissues, 30–90 mg/kg dose range, dose-dependent increase in AUC0–16 h and constant CL
  dose linearity of pharmacokinetics: linear pharmacokinetics

## Cc1ncc2n1-c1ccc(Cl)cc1C(c1ccccc1F)=NC2 [midazolam]
CYP3A; human liver
  microsomal intrinsic clearance: 15800 mL/min
CYP3A; human small intestine
  microsomal intrinsic clearance: 213.7 mL/min
CYP3A; human
  small intestine microsomal intrinsic clearance as percent of liver: 1.35%
